The results in this text go back to US7799803B2, “Hydroxamic acid compounds and methods of use thereof” (The Trustees of Columbia University in the City of New York, priority 2003, dated 2010).

Assay [1] has as its target T1, histone deacetylase, subtype 1 (HDAC1) (Homo sapiens, UniProt Q13547).
T1 construct: Flag; made in house
Put plainly: HDAC1-Flag in vitro deacetylation assay. Type of assay: biochemical. How it is done: Novel compounds were tested for their ability to inhibit histone deacetylase, subtype 1 (HDAC1) using an in vitro deacetylation assay. The enzyme source for this assay was an epitope-tagged human HDAC1 complex immuno-purified from stably expressing mammalian cells. The substrate consisted of a commercial product containing an acetylated lysine side chain (Biomol, Plymouth Meeting, Pa.). Upon deacetylation of the substrate by incubation with the purified HDAC1 complex, a fluorophore is produced that is directly proportional to the level of deacetylation. Using a substrate concentration at the Km for the enzyme preparation, the deacetylation assay was performed in the presence of increasing concentrations of novel compounds to semi-quantitatively determine the concentration of compound required for 50% inhibition (IC50) of the deacetylation reaction.

For assay [2], the system named is human bladder carcinoma cell line, T24. Put plainly: T24 cell-based proliferation assay. To be noted: T-24, T24 cells treated 72 hours, DNA quantitated with bisbenzamide, Table 3, read-out: Cell Growth Inhbition, IC50. How it is done: Proliferation The novel compounds of the present invention were tested for their ability to inhibit growth of the human bladder carcinoma cell line, T24. Cells were treated with compounds for 72 hours, lysed by freeze/thaw to expose the DNA, and then the DNA was quantitated using the intercalating dye, bisbenzamide (Sigma). Fluorescent intensity (ex 350λ em 460λ) was directly proportional to the number of cells per well. Fluorescence values from vehicle-treated cells were determined and used as 100%.

Where [3] appears, read: epitope-tagged human HDAC1 complex, substrate concentration at Km, Table 2, read-out: HDAC Inhibition IC50.
[4] abbreviates: Table 4, additional compounds, n = 2, read-out: HDAC inhibition IC50.

Like-named read-outs stand apart in the source and are kept apart here.

T1 sequence (Q13547 whole entry): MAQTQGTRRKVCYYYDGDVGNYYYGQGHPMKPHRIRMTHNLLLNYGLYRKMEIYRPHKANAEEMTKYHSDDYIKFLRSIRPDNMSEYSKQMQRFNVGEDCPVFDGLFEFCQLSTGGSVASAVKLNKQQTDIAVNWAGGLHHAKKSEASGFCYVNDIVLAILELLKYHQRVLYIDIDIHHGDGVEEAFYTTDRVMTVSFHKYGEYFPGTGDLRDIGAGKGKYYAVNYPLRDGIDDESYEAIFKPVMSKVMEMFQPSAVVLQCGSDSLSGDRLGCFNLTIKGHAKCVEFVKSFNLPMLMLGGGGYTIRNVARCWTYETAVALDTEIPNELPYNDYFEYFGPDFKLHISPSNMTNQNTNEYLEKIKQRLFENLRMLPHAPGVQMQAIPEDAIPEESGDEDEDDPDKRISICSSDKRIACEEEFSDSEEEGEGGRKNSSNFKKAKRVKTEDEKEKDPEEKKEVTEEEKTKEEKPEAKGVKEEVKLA

For orientation: IC50 means the point on the concentration scale where inhibition reaches its midpoint. As for `O=C(CCCCC[C@H](NC(=O)OCc1ccccc1)C(=O)NCc1ccccc1)NO` [Compound 2], the IC50 was 37.4 nM in assay [1] (setting [3]) and 1400 nM in assay [2].
Taken in the same sequence, the figures for `O=C(CCCCC[C@H](NC(=O)c1ccc2ccccc2n1)C(=O)NCc1ccccc1)NO` [Compound 3] were 52.7 nM and 1700 nM.
Taken in the same sequence, the figures for `O=C(CCCCC[C@H](NC(=O)c1ccccc1)C(=O)NCc1ccccc1)NO` [Compound 4] were 73 nM and 3200 nM.
For `O=C(CCCCC[C@H](NC(=O)c1cccnc1)C(=O)NCc1ccccc1)NO` [Compound 5], in that order: 150 nM and 9200 nM.
For `O=C(CCCCC[C@H](NC(=O)OCc1ccccc1)C(=O)Nc1ccc2ncccc2c1)NO` [Compound 6a, (S)-[6-HYDROXYCARBAMOYL-1-(QUINOLIN-6-YLCARBAMOYL)-HEXYL]-CARBAMIC ACID BENZYL ESTER], the concentration for half-maximal inhibition (IC50) came to 5.9 nM in assay [1] (setting [3]) and 200 nM in assay [2].
Taken in the same sequence, the figures for `O=C(CCCCC[C@H](NC(=O)c1ccccc1)C(=O)Nc1ccc2ncccc2c1)NO` [Compound 6b, (2S)-2-BENZOYLAMINO-OCTANEDIOIC ACID 8-HYDROXYAMIDE 1-QUINOLIN-6-YLAMIDE] were 1.8 nM and 200 nM.
As to `O=C(CCCCC[C@H](NC(=O)c1ccc2ccccc2n1)C(=O)Nc1ccc2ncccc2c1)NO` [Compound 7], the values for the IC50 in assay [1] (setting [3]) and in assay [2] were 54.5 nM and 600 nM, respectively.
As for `O=C(CCCCC[C@H](NC(=O)c1cccnc1)C(=O)Nc1ccc2ncccc2c1)NO` [Compound 8], the half-maximal inhibitory concentration (IC50) in assay [1] (setting [3]) amounted to 1.6 nM; in assay [2] it was 1800 nM.
For the compound `O=C(CCCCC[C@H](NC(=O)c1cccnc1)C(=O)Nc1cccc2cccnc12)NO` [Compound 9], the figures for the 50% inhibitory concentration (IC50) in assay [1] (setting [3]) and in assay [2] were 4.1 nM and 400 nM, respectively.
In the case of `O=C(CCCCC[C@H](NC(=O)c1ccc2ccccc2n1)C(=O)Nc1cccc2cccnc12)NO` [Compound 10], the IC50 worked out at 41.8 nM in assay [1] (setting [3]) and 1400 nM in assay [2].
Consider `O=C(CCCCC[C@H](NC(=O)c1ccccc1)C(=O)Nc1cccc2cccnc12)NO` [Compound 11], for which the half-maximal inhibitory concentration (IC50) worked out at 12.7 nM in assay [1] (setting [3]) and 300 nM in assay [2].
Turning to `O=C(CCCCCC(C(=O)NCc1ccccc1)C(=O)NCc1ccccc1)NO` [Compound 12], the IC50 in assay [1] (setting [4]) came out at 156 ± 22.6 nM.
Still for that read-out and setting: the figure for `O=C(CCCCCC(C(=O)NCCc1ccccc1)C(=O)NCCc1ccccc1)NO` [Compound 13] is 186 ± 21.9 nM.
